In US9446039B2, “Aminoheteroaryl compounds as MTH1 inhibitors” (CEMM—FORSCHUNGSZENTRUM FÜR MOLEKULARE MEDIZIN GMBH, priority 2012, dated 2016):

Assays:
Type in all cases: binding
[1] = target: SW480 colon carcinoma cells lysate proteins (Homo sapiens, UniProt P27708); details: PreyGene CAD
[2] = target: T1, SW480 colon carcinoma cells lysate proteins (Homo sapiens, UniProt Q13126); details: PreyGene MTAP; SW480 cells
T1 sequence (Q13126 1-283): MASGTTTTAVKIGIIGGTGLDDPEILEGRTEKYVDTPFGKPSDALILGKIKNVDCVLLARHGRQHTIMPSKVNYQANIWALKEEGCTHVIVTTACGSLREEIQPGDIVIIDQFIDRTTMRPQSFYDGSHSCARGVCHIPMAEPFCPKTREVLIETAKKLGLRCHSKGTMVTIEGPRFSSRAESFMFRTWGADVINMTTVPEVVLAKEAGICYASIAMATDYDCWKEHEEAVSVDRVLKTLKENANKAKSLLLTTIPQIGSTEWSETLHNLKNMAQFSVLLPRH

[3] = target: SW480 colon carcinoma cells lysate proteins (Homo sapiens, UniProt P18669); details: PreyGene PGAM1
[4] = target: T2, SW480 colon carcinoma cells lysate proteins (Homo sapiens, UniProt P50454); details: PreyGene SERPINH1
T2 sequence (P50454 19-418): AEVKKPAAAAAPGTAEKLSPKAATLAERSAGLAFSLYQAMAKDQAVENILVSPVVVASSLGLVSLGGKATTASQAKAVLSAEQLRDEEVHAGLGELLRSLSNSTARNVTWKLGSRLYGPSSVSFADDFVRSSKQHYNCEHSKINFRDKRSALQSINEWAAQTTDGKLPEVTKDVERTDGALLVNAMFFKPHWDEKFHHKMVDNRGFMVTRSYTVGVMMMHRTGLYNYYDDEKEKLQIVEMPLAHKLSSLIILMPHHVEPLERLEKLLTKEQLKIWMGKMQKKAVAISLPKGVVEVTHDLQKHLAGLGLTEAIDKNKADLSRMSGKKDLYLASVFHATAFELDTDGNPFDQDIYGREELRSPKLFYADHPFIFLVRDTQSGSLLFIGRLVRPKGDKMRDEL

[5] = target: SW480 colon carcinoma cells lysate proteins (Homo sapiens, UniProt O75874); details: PreyGene IDH1
[6] = target: SW480 colon carcinoma cells lysate proteins (Homo sapiens, UniProt P49591); details: PreyGene SARS
[7] = target: SW480 colon carcinoma cells lysate proteins (Homo sapiens, UniProt P17980); details: PreyGene PSMC3
[8] = target: T3, SW480 colon carcinoma cells lysate proteins (Homo sapiens, UniProt Q14444); details: PreyGene CAPRIN1
T3 sequence (Q14444 1-709): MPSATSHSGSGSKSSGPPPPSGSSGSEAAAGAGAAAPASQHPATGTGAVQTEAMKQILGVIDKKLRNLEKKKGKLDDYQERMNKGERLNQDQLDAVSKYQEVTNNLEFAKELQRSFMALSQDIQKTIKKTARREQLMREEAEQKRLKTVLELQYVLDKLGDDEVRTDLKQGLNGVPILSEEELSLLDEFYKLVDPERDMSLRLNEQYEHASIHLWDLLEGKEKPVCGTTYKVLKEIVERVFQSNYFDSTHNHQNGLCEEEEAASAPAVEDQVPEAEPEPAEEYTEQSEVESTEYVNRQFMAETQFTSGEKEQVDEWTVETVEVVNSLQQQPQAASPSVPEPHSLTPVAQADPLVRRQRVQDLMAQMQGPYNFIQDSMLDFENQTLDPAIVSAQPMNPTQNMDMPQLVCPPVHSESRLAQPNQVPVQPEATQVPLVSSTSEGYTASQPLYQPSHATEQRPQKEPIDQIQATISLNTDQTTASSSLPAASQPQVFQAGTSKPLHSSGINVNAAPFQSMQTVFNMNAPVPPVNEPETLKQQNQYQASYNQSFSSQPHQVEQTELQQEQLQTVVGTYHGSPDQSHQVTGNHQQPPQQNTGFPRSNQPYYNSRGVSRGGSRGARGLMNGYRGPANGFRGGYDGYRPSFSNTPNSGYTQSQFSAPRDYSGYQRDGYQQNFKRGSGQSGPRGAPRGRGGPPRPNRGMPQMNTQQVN

[9] = target: SW480 colon carcinoma cells lysate proteins (Homo sapiens, UniProt P23528); details: PreyGene CFL1
[10] = target: SW480 colon carcinoma cells lysate proteins (Homo sapiens, UniProt Q14152); details: PreyGene EIF3A; SW480 cells
Chain of SW480 colon carcinoma cells lysate proteins (Homo sapiens, UniProt Q14152) (Q14152 whole entry): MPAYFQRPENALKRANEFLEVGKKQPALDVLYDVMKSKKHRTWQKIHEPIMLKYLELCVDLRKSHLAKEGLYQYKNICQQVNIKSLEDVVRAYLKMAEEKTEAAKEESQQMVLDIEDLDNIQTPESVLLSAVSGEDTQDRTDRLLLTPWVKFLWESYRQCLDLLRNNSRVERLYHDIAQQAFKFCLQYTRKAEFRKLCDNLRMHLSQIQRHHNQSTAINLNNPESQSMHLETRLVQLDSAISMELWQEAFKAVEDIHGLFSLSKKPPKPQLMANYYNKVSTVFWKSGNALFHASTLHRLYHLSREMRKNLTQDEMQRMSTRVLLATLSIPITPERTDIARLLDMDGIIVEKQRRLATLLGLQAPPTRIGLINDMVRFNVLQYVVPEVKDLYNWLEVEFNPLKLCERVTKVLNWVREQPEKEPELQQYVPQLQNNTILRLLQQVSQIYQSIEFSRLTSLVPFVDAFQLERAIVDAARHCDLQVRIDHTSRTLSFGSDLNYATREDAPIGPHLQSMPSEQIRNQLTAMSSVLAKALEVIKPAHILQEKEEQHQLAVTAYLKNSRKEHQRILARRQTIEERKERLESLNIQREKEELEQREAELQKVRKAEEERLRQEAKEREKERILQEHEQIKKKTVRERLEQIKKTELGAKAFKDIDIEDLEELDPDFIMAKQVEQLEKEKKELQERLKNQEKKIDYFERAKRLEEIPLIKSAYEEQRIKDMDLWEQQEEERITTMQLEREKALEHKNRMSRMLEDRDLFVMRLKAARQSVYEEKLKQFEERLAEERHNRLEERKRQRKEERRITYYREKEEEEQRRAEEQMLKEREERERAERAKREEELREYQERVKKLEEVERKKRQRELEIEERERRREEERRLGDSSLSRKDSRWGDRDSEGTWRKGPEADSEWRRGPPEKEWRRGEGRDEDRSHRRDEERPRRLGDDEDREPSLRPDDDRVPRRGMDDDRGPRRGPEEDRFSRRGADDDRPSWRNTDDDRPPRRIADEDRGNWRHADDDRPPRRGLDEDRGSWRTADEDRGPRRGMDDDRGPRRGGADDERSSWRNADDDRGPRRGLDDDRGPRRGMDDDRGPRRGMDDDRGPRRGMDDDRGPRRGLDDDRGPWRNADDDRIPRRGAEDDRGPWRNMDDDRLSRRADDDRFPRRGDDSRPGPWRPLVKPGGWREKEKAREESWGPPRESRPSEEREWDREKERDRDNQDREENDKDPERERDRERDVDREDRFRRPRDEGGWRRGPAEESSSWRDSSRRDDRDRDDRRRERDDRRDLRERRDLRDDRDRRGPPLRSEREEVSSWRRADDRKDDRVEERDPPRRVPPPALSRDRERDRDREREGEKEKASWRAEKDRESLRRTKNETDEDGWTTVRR

Chain of SW480 colon carcinoma cells lysate proteins (Homo sapiens, UniProt O75874) (O75874 whole entry): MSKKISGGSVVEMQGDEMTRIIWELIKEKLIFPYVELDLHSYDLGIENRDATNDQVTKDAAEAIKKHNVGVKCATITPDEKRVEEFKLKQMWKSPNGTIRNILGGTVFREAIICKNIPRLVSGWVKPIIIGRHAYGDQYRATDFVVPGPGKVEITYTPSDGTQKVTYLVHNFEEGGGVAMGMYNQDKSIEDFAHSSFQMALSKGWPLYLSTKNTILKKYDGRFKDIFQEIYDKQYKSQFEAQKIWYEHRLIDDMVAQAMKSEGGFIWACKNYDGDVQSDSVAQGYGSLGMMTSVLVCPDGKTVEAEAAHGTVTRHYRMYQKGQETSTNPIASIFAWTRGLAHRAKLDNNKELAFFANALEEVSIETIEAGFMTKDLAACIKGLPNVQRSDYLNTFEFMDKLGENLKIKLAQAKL
Chain of SW480 colon carcinoma cells lysate proteins (Homo sapiens, UniProt P23528) (P23528 whole entry): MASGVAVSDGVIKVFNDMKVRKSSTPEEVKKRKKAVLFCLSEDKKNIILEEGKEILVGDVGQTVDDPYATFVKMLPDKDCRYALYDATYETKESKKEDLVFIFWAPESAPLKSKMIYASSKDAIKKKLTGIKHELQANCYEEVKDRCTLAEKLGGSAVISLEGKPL
Chain of SW480 colon carcinoma cells lysate proteins (Homo sapiens, UniProt P49591) (P49591 whole entry, looked up): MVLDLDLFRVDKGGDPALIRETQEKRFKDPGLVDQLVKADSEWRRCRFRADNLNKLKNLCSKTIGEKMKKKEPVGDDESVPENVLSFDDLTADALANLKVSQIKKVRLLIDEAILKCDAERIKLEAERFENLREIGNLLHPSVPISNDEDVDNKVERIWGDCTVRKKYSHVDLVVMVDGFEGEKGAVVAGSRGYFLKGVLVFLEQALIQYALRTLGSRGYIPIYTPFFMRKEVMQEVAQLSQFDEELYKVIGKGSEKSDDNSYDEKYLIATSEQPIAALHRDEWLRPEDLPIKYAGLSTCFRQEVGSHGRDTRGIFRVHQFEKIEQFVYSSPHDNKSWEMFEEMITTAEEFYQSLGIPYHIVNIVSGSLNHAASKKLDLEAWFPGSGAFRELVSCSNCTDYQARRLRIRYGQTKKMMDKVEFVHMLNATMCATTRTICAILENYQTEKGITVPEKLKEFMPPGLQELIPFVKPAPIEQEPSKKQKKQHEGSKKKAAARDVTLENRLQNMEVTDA
Chain of SW480 colon carcinoma cells lysate proteins (Homo sapiens, UniProt P18669) (P18669 whole entry): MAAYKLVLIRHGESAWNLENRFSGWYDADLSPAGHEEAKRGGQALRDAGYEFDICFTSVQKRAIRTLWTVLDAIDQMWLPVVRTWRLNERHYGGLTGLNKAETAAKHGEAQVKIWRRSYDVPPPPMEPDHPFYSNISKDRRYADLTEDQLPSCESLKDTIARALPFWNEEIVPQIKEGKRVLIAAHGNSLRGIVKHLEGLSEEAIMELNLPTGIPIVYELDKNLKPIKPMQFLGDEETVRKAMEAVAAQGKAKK
Chain of SW480 colon carcinoma cells lysate proteins (Homo sapiens, UniProt P17980) (P17980 whole entry): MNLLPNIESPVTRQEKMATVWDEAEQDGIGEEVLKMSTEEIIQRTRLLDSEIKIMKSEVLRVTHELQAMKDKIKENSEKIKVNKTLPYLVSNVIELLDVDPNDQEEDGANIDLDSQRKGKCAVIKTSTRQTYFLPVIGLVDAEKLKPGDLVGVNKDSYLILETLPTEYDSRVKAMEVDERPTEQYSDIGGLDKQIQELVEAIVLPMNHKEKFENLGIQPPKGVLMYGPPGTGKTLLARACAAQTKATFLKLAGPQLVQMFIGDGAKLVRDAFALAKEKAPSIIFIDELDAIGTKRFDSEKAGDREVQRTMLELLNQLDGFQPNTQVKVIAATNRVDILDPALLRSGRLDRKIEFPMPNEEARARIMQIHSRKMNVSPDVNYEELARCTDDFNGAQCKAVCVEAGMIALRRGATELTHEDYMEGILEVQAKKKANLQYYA

For C[C@H](Oc1cc(-c2cnn(C3CCNCC3)c2)cnc1N)c1c(Cl)ccc(F)c1Cl [(5)-crizotinib], the AvgP [1] was 0.3483, the “SC.Exp. 1-1” value [1] was 2 and the “SC.Exp. 1-2” value [1] was 3. The “SC.Exp. 2-1” value [1] was 0, the “SC.Exp. 2-2” value [1] was 0 and the “Sum (SC.Exp.)” value [1] was 5. The AvgP [2] was 0, the “SC.Exp. 1-1” value [2] was 1 and the “SC.Exp. 1-2” value [2] was 1. For the same compound, the “SC.Exp. 2-1” value [2] was 0, the “SC.Exp. 2-2” value [2] was 0 and the “SC.Exp. Sum” value [2] was 2. The AvgP [3] was 0.4721, the “SC.Exp. 1-1” value [3] was 6 and the “SC.Exp. 1-2” value [3] was 6. The “SC.Exp. 2-1” value [3] was 0, the “SC.Exp. 2-2” value [3] was 0 and the “Sum (SC.Exp.)” value [3] was 12. The AvgP [4] was 0.3843, the “SC.Exp. 1-1” value [4] was 5 and the “SC.Exp. 1-2” value [4] was 6. The “SC.Exp. 2-1” value [4] was 0, the “SC.Exp. 2-2” value [4] was 0 and the “Sum (SC.Exp.)” value [4] was 11. For the same compound, the AvgP [5] was 0.1991, the “SC.Exp. 1-1” value [5] was 3 and the “SC.Exp. 1-2” value [5] was 0. For the same compound, the “SC.Exp. 2-1” value [5] was 0, the “SC.Exp. 2-2” value [5] was 0 and the “Sum (SC.Exp.)” value [5] was 3. For the same compound, the AvgP [6] was 0.4649, the “SC.Exp. 1-1” value [6] was 4 and the “SC.Exp. 1-2” value [6] was 4. The “SC.Exp. 2-1” value [6] was 0, the “SC.Exp. 2-2” value [6] was 0 and the “Sum (SC.Exp.)” value [6] was 8. The AvgP [7] was 0.4297, the “SC.Exp. 1-1” value [7] was 3 and the “SC.Exp. 1-2” value [7] was 3. For the same compound, the “SC.Exp. 2-1” value [7] was 0, the “SC.Exp. 2-2” value [7] was 0 and the “Sum (SC.Exp.)” value [7] was 6. For the same compound, the AvgP [8] was 0.2355, the “SC.Exp. 1-1” value [8] was 2 and the “SC.Exp. 1-2” value [8] was 2. The “SC.Exp. 2-1” value [8] was 0, the “SC.Exp. 2-2” value [8] was 0 and the “Sum (SC.Exp.)” value [8] was 4. For the same compound, the AvgP [9] was 0.3871, the “SC.Exp. 1-1” value [9] was 12 and the “SC.Exp. 1-2” value [9] was 11. The “SC.Exp. 2-1” value [9] was 1, the “SC.Exp. 2-2” value [9] was 0 and the “Sum (SC.Exp.)” value [9] was 24. For the same compound, the AvgP [10] was 0, the “SC.Exp. 1-1” value [10] was 9 and the “SC.Exp. 1-2” value [10] was 7. The “SC.Exp. 2-1” value [10] was 7, the “SC.Exp. 2-2” value [10] was 6 and the “SC.Exp. Sum” value [10] was 29.
